Assay results reported in patent US6403826B1, “Corrosion-inhibiting coating composition for metals” (Ciba Specialty Chemicals Corporation, priority 1996, dated 2002).

Legend:
[1] = Humidity test ASTM D 4585-87, 330 hours, of acrylic dispersion coating (Maincote HG-54) with corrosion inhibitor; corrosion protection factor CPF; details: humidity test 330 hours, coat thickness 45 to 50 μm; for CPF film / CPF metal: maximum 6 points, greater = better; for CPF: sum of film and metal, maximum 12 points
Protocol: (§1) In order to prepare the coating formulation (acrylic dispersion based on Maincote HG-54), components 1 to 8 (formulation without amine salt) and components 1 to 9 (formulation comprising an amine salt) are employed in the sequence stated (see Table 1).
(§2) Components 1 to 8 or 1 to 9 are dispersed using a high-speed stirrer at 3000 revolutions/minute to a degree of ground fineness or ground particulate nature of <15 μm. The outcome of dispersing the pigment paste thus obtained is assessed by determining the grindometer value (ISO 1524).The amount of the novel salts employed is based on the overall solids content of the formulation without salt (overall solids content 47%). Accordingly, an addition of, say, 1.0% of amine salt to 100 g of dispersion denotes, for example, an amount of 0.47 g. To complete the coating formulation, components 10 to 16 of Table 1 are added at a reduced stirring speed (1000 revolutions/minute) in the stated sequence. Subsequently, the pH of the formulation is checked and, if appropriate, is adjusted prior to application to a value of from 8 to 8.5 using ammonia solution (25% strength).
[…] Drying conditions: 10 days at room temperature.
(§3) Prior to the beginning of weathering, the “coating films” undergo defined damage in the form of a parallel cut (i.e. parallel to the longest panel edge) using a Bonder cross-cut instrument (Mod. 205; manufactured and sold by Lau, 5870 Hemer/Germany). The panel edges are protected by applying an edge protector (Icosit® 255; manufactured by Inertol AG, Winterthur/Switzerland).
(§4) The samples are subsequently subjected to accelerated weathering in a salt spray test in accordance with DIN 50 021 SS for 168 hours (Table 2) or to a humidity test in accordance with ASTM D 4585-87 for 330 hours (Table 3). The assessment of the results is based on the relevant DIN standards in accordance with an evaluation key, by the indication of a corrosion protection value CPF (Corrosion Protection Factor). The CPF is an additive term composed of an assessment of the coating (film) and an assessment of visible underfilm corrosion and appearance of the metal surface, and has a maximum of 12 points. The individual maximum values are 6 points each. The greater the CPF, the better the protection against corrosion.

[2] = Wet adhesion of the coating formulation, DIN 53 151 crosshatch cut and tape tearoff test, after the humidity test; details: after humidity test 330 hours, scale Gt 0 (completely intact adhesion) to Gt 5 (inadequate adhesion)
Protocol: (§5) The coating formulations are applied to steel panels (19×10.5 cm) of the Bonder type (cold-rolled degreased steel; manufactured by Chemetall, Frankfurt am Main/Germany) in a coat thickness which after drying amounts to 50-55 μm. Drying conditions: 10 days at room temperature.
(§6) As additional assessment criteria, the “subfilm migration in the wet state” (cathodic delamination) along the artificial damage side is determined, after the end of the salt spray test, in accordance with DIN 53 167. […] After the end of the humidity test, the wet adhesion of the coating formulation is determined in accordance with DIN 53 151 by making a crosshatch cut followed by the tape tearoff test. According to DIN 53 151 (scale from Gt 0 to Gt 5) a crosshatch value of Gt 0 corresponds to completely intact adhesion of the coating film, whereas Gt 5 corresponds to inadequate adhesion.

[3] = Salt spray test DIN 50 021 SS, 168 hours, of acrylic dispersion coating (Maincote HG-54) with corrosion inhibitor; corrosion protection factor CPF; details: salt spray 168 hours, coat thickness 50 to 55 μm; for CPF film / CPF metal: maximum 6 points, greater = better; for CPF: sum of film and metal, maximum 12 points
Protocol: as §1, §2, §5, §3, §4

[4] = Subfilm migration in the wet state (cathodic delamination) along the artificial damage, DIN 53 167, after the salt spray test; details: after salt spray 168 hours, coat thickness 50 to 55 μm, lesser = more effective
Text: as §5, §3, §6

[5] = 1% inhibitor on overall solids content
[6] = 2% inhibitor on overall solids content

| SMILES | CPF film [1, 5] | CPF metal [1, 5] | CPF ([1]; 1% inhibitor) | CPF film [1, 6] | CPF metal [1, 6] | CPF ([1]; 2% inhibitor) | Wet adhesion (Gt value) ([2]; 1% inhibitor) | Wet adhesion (Gt value) ([2]; 2% inhibitor) [Gt] | CPF film [3, 5] | CPF metal [3, 5] | CPF ([3]; 1% inhibitor) | Cathodic delamination (mm total) ([4]; 1% inhibitor) [mm] | CPF film [3, 6] | CPF metal [3, 6] | CPF ([3]; 2% inhibitor) | Cathodic delamination (mm total) ([4]; 2% inhibitor) [mm] |
| --- | --- | --- | --- | --- | --- | --- | --- | --- | --- | --- | --- | --- | --- | --- | --- | --- |
| CCCCC(CC)CN(CP(=O)(O)O)CP(=O)(O)O.CCN1CCOCC1.CCN1CCOCC1 (stereo not drawn) [Example 4, 2-Ethylhexylaminobismethylenephosphonic Acid, Salt with Two Equivalents N-ethylmorpholine] | 4.0 | 2.6 | 6.6 | 5.0 | 4.8 | 9.8 | 0 Gt | 0 | 5.0 | 5.0 | 10.0 | 22 |  |  |  |  |
| CCCCCCN(CCCCCC)CP(=O)(O)O.CCN1CCOCC1.CCN1CCOCC1 [Example 2, Dihexylaminomethylenephosphonic Acid, Salt with Two Equivalents of N-ethylmorpholine] | 4.0 | 4.0 | 8.0 |  |  |  | 0 Gt |  | 4.2 | 5.2 | 9.4 | 14 |  |  |  |  |
| CCCCCCCCN(CP(=O)(O)O)CP(=O)(O)O.CCN1CCOCC1.CCN1CCOCC1 [Example 9, n-Octylaminobismethylenephosphonic Acid, Salt with Two Equivalents of N-ethylmorpholine] | 4.4 | 4.0 | 8.4 | 4.8 | 5.4 | 10.2 | 0 Gt | 0 | 5.6 | 5.4 | 11.0 | 12 |  |  |  |  |
| CCCCCCCCCCN(CP(=O)(O)O)CP(=O)(O)O.CCN1CCOCC1.CCN1CCOCC1 [Example 8, n-Decylaminobismethylenephosphonic Acid, Salt with Two Equivalents of N-ethylmorpholine] | 5.2 | 4.7 | 9.9 |  |  |  | 0-1 Gt |  | 5.2 | 5.4 | 10.6 | 12 | 5.2 | 5.2 | 10.4 | 10 |
| CCCCCCN(CP(=O)(O)O)CP(=O)(O)O.CCN1CCOCC1.CCN1CCOCC1 [Example 10, n-Hexylaminobismethylenephosphonic Acid, Salt with Two Equivalents of N-ethylmorpholine] | 4.0 | 3.8 | 7.8 | 4.4 | 6.0 | 10.4 | 0 Gt | 0 | 4.6 | 5.4 | 10.0 | 24 |  |  |  |  |
| CCCCCCCCCCCCCCN(CP(=O)(O)O)CP(=O)(O)O.CCN1CCOCC1.CCN1CCOCC1 [Example 6, n-Tetradecylaminobismethylenephosphonic Acid, Salt with Two Equivalents of N-ethylmorpholine] | 4.6 | 5.0 | 9.6 | 5.2 | 4.5 | 9.7 | 0 Gt | 0 | 5.4 | 5.0 | 10.2 | 18 |  |  |  |  |
| CCCCCCCCCCCCN(CP(=O)(O)O)CP(=O)(O)O.OCCN(CCO)CCO.OCCN(CCO)CCO [Example 16, n-Dodecylaminobismethylenephosphonic Acid, Salt with Two Equivalents of Triethanolamine] |  |  |  | 4.8 | 3.6 | 8.4 |  | 0 | 4.8 | 4.4 | 9.2 | 16 |  |  |  |  |
| CCCCCCCCCCCCN(CP(=O)(O)O)CP(=O)(O)O.CCN1CCOCC1.CCN1CCOCC1 [Example 7, n-Dodecylaminobismethylenephosphonic Acid, Salt with Two Equivalents of N-ethylmorpholine] | 5.2 | 3.0 | 8.2 | 6.0 | 4.5 | 10.5 | 0 Gt | 0 | 5.4 | 5.6 | 11.0 | 16 |  |  |  |  |
| CCCCCCCCCCCCCCCCN(CP(=O)(O)O)CP(=O)(O)O.CCN1CCOCC1.CCN1CCOCC1 [Example 5, n-Hexadecylaminobismethylenephosphonic Acid, Salt with Two Equivalents of N-ethylmorpholine] | 4.2 | 5.0 | 9.2 |  |  |  | 0 Gt |  | 5.2 | 5.0 | 10.2 | 26 |  |  |  |  |
| CCCCCCCCCCN(CP(=O)(O)O)CP(=O)(O)O.OCCN(CCO)CCO.OCCN(CCO)CCO [Example 17, n-Decylaminobismethylenephosphonic Acid, Salt with Two Equivalents of Triethanolamine] |  |  |  |  |  |  |  |  | 5.4 | 5.5 | 10.9 | 16 |  |  |  |  |
| CCCCCCCCCCCCCCCCCCN(CP(=O)(O)O)CP(=O)(O)O.CCN1CCOCC1.CCN1CCOCC1 [Example 1, n-Octadecylaminobismethylenephosphonic Acid, Salt with Two Equivalents of N-ethylmorpholine] | 4.0 | 4.0 | 8.0 | 5.0 | 4.0 | 9.0 | 0 Gt | 0 | 6.0 | 5.0 | 11.0 | 28 | 6.0 | 5.2 | 11.2 | 30 |
| CCCCCCCCN(CCCCCCCC)CP(=O)(O)O.CCN1CCOCC1.CCN1CCOCC1 [Example 3, Dioctylaminomethylenephosphonic Acid, Salt with Two Equivalents of N-ethylmorpholine] |  |  |  |  |  |  |  |  | 4.0 | 4.0 | 8.0 | 16 |  |  |  |  |
